Experimental data taken from patent US11291654B2, “Formulations of cycloserine compounds and applications thereof” (SyneuRx International (Taiwan) Corp., priority 2018, dated 2022).
Where two headings read alike, the source gives them in different places.

Assay type: physicochemical
Procedure: 1. Stress Testing of D-cycloserine Stability test was held with 500 mg of commercially available D-cycloserine from Macleods Pharma, opened and stored under high humidity (>90% RH or 75% RH) at room temperature, a high temperature (40° C. or 60° C.) or a light condition for 10 days. […] In the following experiments, the total impurity was set up to confirm the stability of D-cycloserine.

N[C@H]1CONC1=O (stereo in doubt) [D-cycloserine (Macleods Pharma), 4-amino-3-isoxazolidinone]
Appearance (0 day): White Powder | Total Impurity (%) (0 day): 0.59% | Moisture-absorption Weight Gain (%) (25° C., 75% RH, 10 days): 0.25% | Total Impurity (%) (25° C., 75% RH, 10 days): 1.71% | Moisture-absorption Weight Gain (%) (25° C., >90% RH, 10 days): 21.11% | Total Impurity (%) (25° C., >90% RH, 10 days): 86.64% | Appearance (40° C., 10 days): White Powder | Total Impurity (%) (40° C., 10 days): 0.70% | Appearance (60° C., 10 days): White Powder | Total Impurity (%) (60° C., 10 days): 0.66% | Stability (in words) (10 days): relatively stable at 40 °C and 60 °C | Appearance (Light, 10 days): White Powder | Total Impurity (%) (Light, 10 days): 0.96%
